The source of these data is patent publication US20150307938A1, “METHOD TO IDENTIFY A NOVEL CLASS OF IMMUNOLOGIC ADJUVANTS” (Lancell, L.L.C., priority 2011, published 2015).

Data set [1] deals with tumor. Also noted: species or system mice. The settings on record: mouse, in vivo.
Data set [2] is described as follows: Estimate of maximum absorbed dose from transdermal transport rate of DBP on human skin in vivo. The settings on record: from known transdermal transport rate on human skin in vivo.
Data set [3] deals with dendritic cells. Nature of the data set: 48 hr response of wild-type and Caspase-1−/− mice to topical FITC+DBP (flow cytometry of draining lymph node). The data set is classed as in vivo. To be noted: vs wild-type. Here is the method: We also tested the relevance of a second dendritic cell activation system that intersects with TLR, the NALP inflammasome (reviewed in Franchi, L. et al. 2009 “The inflammasome: a Caspase-1-activation platform that regulates immune responses and disease pathogenesis” Nature Immunology 10:241-247).
Mice were treated topically on the shaved abdominal skin with FITC dissolved in acetone (5 mg/ml) combined with an equal volume of DBP. Two days later, the skin draining inguinal lymph node cells were stained for immunofluorescent flow cytometry using monoclonal antibodies specific for CD19, CD11c, CD40, I-Ab, CD80, and CD86 obtained from BD Pharmingen, and detected using a Becton Dickenson FACSCalibur followed by analysis of the data using FlowJo software.

In data set [4] the test system is skin dendritic cells. The data set can be described thus: Flow cytometric analysis of Ahr−/− response to topical DBP. (A flow cytometer gives signals particle by particle.)
Data set [5] concerns ear skin. Nature of the data set: Cutaneous lymphoid stress response gene expression after topical DBP on ear skin. The data set is classed as in vivo. The settings on record: ear skin of C57B1/6 mice. An excerpt:
The cutaneous lymphoid stress response bears a strong resemblance to the effects of topical DBP. DBP is required for the induction of contact hypersensitivity to FITC in mice, a form of allergic response. Topical DBP induces the migration of Langerhans cells from the epidermis to draining lymph nodes. And, topical DBP acts as an adjuvant for antigens injected into the skin, including endotoxin-free OVA. One might expect, therefore, that topical DBP would cause the same effects as tape stripping or occlusive skin patch immunization. To our surprise, none of the effects that characterize the DETC-dependent cutaneous lymphoid stress-surveillance response are found in the response to DBP.

In data set [6] the test system is OVA. The data set can be described thus: Immune response to intradermal peptide (SIINFEKL) or protein (OVA) antigen, also alum-adsorbed OVA, with topical DBP. The format is in vivo, mice. An excerpt:
Topical DBP induced a 16-fold increase in the IgG1 Ab response to OVA adsorbed to alum and increased the IgG2c response 26-fold.

Data set [7] concerns skin. The settings on record: in vivo.
In data set [8] the test system is skin. Nature of the data set: Skin histology after multiple topical applications of DBP. To be noted: multiple topical doses.

Entries after “also recorded” stand apart in the source; their conditions may differ.

For `CCCCOC(=O)c1ccccc1C(=O)OCCCC` [DBP, dibutylphthalate], in data set [1], the tumor-specific immunity entry is “Protective and therapeutic tumor-specific immunity were induced”. In addition, in data set [2], the “maximum absorbed dose from topical use as an adjuvant, vs LOEL in pregnant rats” value was “five logs lower than the LOEL” and the “maximum absorbed dose from topical use as an adjuvant, vs amount ingested daily” value was “no higher than the amount we ingest daily”. In addition, in data set [3], the “dendritic cell response in Casp−/− mice” value is listed as “undiminished”. Besides, the E/C in data set [4] (Ahr−/− mice) is 6.375. In data set [4] (B6 mice), the E/C came out at 5.97. In addition, the “skin dendritic cell response in AhR−/− mice” value in data set [4] (topical application) was “no evidence for any impairment”. In data set [5], the “expression of H60a” value is reported as “no statistically significant increase”, the “expression of Il-13” value was “no statistically significant increase”, the “expression of Il-25” value was “no statistically significant increase” and the “expression of KLrk1 (encodes NKG2D)” value is given as “no statistically significant increase”. In addition, in data set [5], the “expression of Rae-1” value is “no statistically significant increase; also recorded: actually diminished”. Besides, the “T cell and antibody responses” value in data set [6] (DBP on skin of mice injected intradermally with adjuvant-free SIINFEKL or OVA) is given as “dramatic increase”. In addition, the survival of anaphylaxis result in data set [6] (high dose of alum-adsorbed OVA plus topical DBP, 60% succumbed without DBP) is recorded as “all of the mice survived”. Also, in data set [6] (topical DBP), the “increase in the IgG1 Ab response to OVA adsorbed to alum” value amounted to 16 fold and the “increase in the IgG2c response to OVA adsorbed to alum” value came out at 26 fold. Further, the “histologic evidence of contact hypersensitivity” value in data set [7] is “no histologic evidence of contact hypersensitivity”. For the same molecule, in data set [8], the “histologic evidence of inflammation in the skin” value was “no histologic evidence of inflammation”.
